US9682993B2, “Anticancer compounds” (ST. JUDE CHILDREN'S RESEARCH HOSPITAL, priority 2012, dated 2017)

Key:
cell lines investigated = assay: Drug combination assays, cell line not stated; assay type: cell-based; conditions: all cell lines investigated
[1] = In vivo plasma pharmacokinetic study in C.B-17 scid mice
Experimental: A sensitive and specific LC-MS/MS assay was developed for quantification of compound 20 in plasma for application in a murine pharmacokinetic study. Calibrators and quality controls (QCs) were prepared using 100% methanol stocks in blank C.B-17 scid mouse plasma with lithium heparin anticoagulant. The calibrators and QCs, 25 μL each, were stored briefly on wet ice and then protein precipitated with 75 μL of ice cold compound 19 internal standard processing solution. The supernatants, 100 μL of each, were mixed with 100 μL of methanol-10 mM ammonium bicarbonate, pH 7.0 (50:50 v/v) and injected from the 96-well plate to the LC-MS/MS system via a CTC HTS PAL autosampler. Chromatography was performed using a Phenomenex Synergi Fusion-RP C18 column ([…], 50 mm×2.0 mm) maintained at 35° C., and a linear gradient mobile phase consisting of water:methanol:acetonitrile ([…], v/v) to methanol: acetonitrile (70:30, v/v) and back. […] Detection was performed with an AB Sciex 5500 QTRAP LC-MS/MS System equipped with a Turbo IonSpray® source using the positive multiple-reaction monitoring (MRM) mode. The transitions monitored included m/x 475->288 for compound 20 and m/x 489->400 for compound 19, which served as an internal standard. The lower limit of quantitation was 1 ng/mL (5× S:N ration, <20% CV); intra-run precision and accuracy was ≦11.2% CV and 96.5-103%, respectively. The calibration curve was linear from 1 to 500 ng/mL (R=0.9968) and QC samples above the limit of quantitation (500 ng/mL) were precisely and accurately diluted into the linear range with blank C.B-17 scid mouse plasma.
A plasma PK study of compound 20 in male C.B-17 scid mice receiving a continuous i.v. infusion of compound 20 (100 mg/kg over 30 min) was performed. Compound 20 was formulated in 15% Captisol®/50 mM Na2HPO4/NaH2PO4 solution at 3 mg/mL and infused with a syringe pump at a rate of 20 μL/min via a jugular vein catheter. Blood samples (1 to 2 samples per mouse, 18 samples from 11 total mice) were collected by either retro-orbital sinus bleeding or terminal cardiac puncture at the following times after the start of infusion: 7.5, 15, 30 (end of infusion), 35, 45, and 60 minutes. The samples were immediately processed to plasma by centrifugation at 2000 g for 5 min; the resultant volume of plasma was then protein precipitated with a 3:1 volume of ice cold IS processing solution. The supernatants were immediately placed on dry ice and then stored at −80° C. until analysis.
The concentration-time data for compound 20 in mice was analyzed using the MLEM population estimation method as implemented in ADAPTS (D'Argenio, D. Z. and Schumitzky, A., Wang ADAPT 5 User's Guide: Pharmacokinetic/Pharmacodynamic Systems Analysis Software; Biomedical Simulations Resource: Los Angeles, Calif., USA, 2009). A linear, one-compartment PL model was fit to the data, and the adequacy of the fit was assessed by the −2 log likelihood value, visual predictive checks, and the residual plots. Inter-individual variability in plasma clearance (CL) and volume of distributions (V) was assumed to be log-normally distributed with the covariance matrix constrained to diagonal elements. The residual, intra-individual error was described using an additive and proportional model, with the additive term fixed to the lower limit of quantitation of the LC-MS/MS assay (LLOQ, 1 ng/mL). Beal's M3 method was used to handle data that was below the LLOQ (Beal, S. L., J. Pharmacokinet. Pharmacodyn. 2001, 28, 481). Other secondary parameters, such as the area under the plasma concentration-time curve to infinity (AUCinf), maximum plasma concentration (Cmax), and the time of Cmax (Tmax) were derived for the population using standard formulae (Pharmacokinetics, Second Edition; Gibaldi, M.; Perrier, D., Eds.; 2nd ed.; CRC Press, 1982).

[2] = Maximum tolerated dose study (weight loss); assay type: in vivo, C.B-17 scid mice; conditions: 50 mg/kg four hour infusion daily for five days; day 5 of infusion
Experimental: Xenograft tumors were first established from an SK-MEL-2 cell culture at the St. Jude Children's Research Hospital Xenograft Core. After these tumors were established as a mouse xenograft model, they were routinely maintained in the C.B-17 scid strain (Taconic Farms, Germantown, N.Y.). Experimental animals were prepared by transplanting small pieces of dissected tumors from donor animals into recipient mice. All animal studies were performed in accordance with the St. Jude Children's Research Hospital Animal Care and Use Committee. SK-MEL-2 xenograft tumors were transplanted into male C.B-17 scid mice on Day −21. On Days −7 to −5, a jugular vein catheter was surgically implanted into each mouse. […] Tumors were continuously measured during and after infusion periods, 5 times per week (weekdays). Tumor volumes were determined based on the following equation: Tuvol=(δ1/2+δ2/2)^1.5708, where δ1 and δ2 are diameters measured with a caliper at right angles of each other. […]
The in vivo effects, e.g. weight loss, of compound 20 were evaluated in mice using the methods described herein above. […] Weight of the test animals was determined daily (5 weight measurements/week). […]

[3] = male, C.B-17 scid, mouse, plasma, iv, 100 mg/kg, i.v. infusion over 30 min, population

CNC(=O)O[C@@H](C)/C=C\C(=O)N[C@H]1CC[C@@H](C/C=C(C)/C=C/[C@@H]2C[C@]3(CO3)CC(C)(C)O2)CC1 [compound 20, (S,Z)-5-(((1R,4R)-4-((2E,4E)-5-((3R,5S)-7,7-Methyl-1,6-Dioxaspiro[2.5]Octan-5-Yl)-3-Methylpenta-2,4-Dien-1-Yl)Cyclohexyl)Amino)-5-Oxopent-3-En-2-Yl Methylcarbamate]
synergy with PI3K/mTOR inhibition (cell lines investigated): synergy is also seen
mean CL relative to hepatic blood flow ([1]; i.v. infusion over 30 min): 3 fold
V ([1]; i.v. infusion over 30 min, population mean): 0.877 L/kg
AUC(0-inf) [1, 3]: 12.5 µM·h
Cmax [1, 3]: 24.1 µM
Tmax [1, 3]: 30 min
half-life ([1]; male, C.B-17 scid, mouse, plasma, iv, 100 mg/kg, i.v. infusion over 30 min, population mean terminal elimination half-life): 2.18 min
clearance ([1]; male, C.B-17 scid, mouse, plasma, iv, i.v. infusion over 30 min (100 mg/kg, 50 mg/kg elsewhere in the source), population mean): 280 mL/min/kg
plasma concentration versus target plasma concentration ([1]; target far exceeded and maintained for an adequate time period): > 0.5 µM
average weight loss [2]: 12.7%
